Source: patent US20220132847A1, “CINNOLINIUM COMPOUNDS FOR USE IN A METHOD OF CONTROLLING UNWANTED PLANT GROWTH” (SYNGENTA CROP PROTECTION AG, priority 2019, published 2022)
Where a name gives a salt, the structure may show the parent alone.

system: Digitaria sanguinalis (DIGSA); test: Post-emergence efficacy, glasshouse; format: in vivo; conditions: Digitaria sanguinalis, post-emergence, 312 h; Application Rate 1000 g/Ha; evaluated after 13 days; 100=total damage to plant, 0=no damage to plant; read-out: Control of weed species after post-emergence application, DIGSA
Procedure, shortened: (§1)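 Plants grown 14 days in standard soil in pots in the glasshouse (24/16° C. day/night, 14 h light, 65% humidity) were sprayed with test compound diluted in 0.25% or 1% Empicol ESC70 plus 1% ammonium sulphate in water. Damage was scored 13 days later (0 = none, 100 = total).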

Row | SMILES | pest or weed control at 1000 g/ha [%]
1 | O=C(O)c1c[n+](CCO)nc2ccccc12 [Compound A30] | 90
2 | O=C(O)CC[n+]1cc(C(=O)[N-]S(=O)(=O)C2CC2)c2ccccc2n1 [Compound A20, [2-(2-carboxyethyl)cinnolin-2-ium-4-carbonyl]-cyclopropylsulfonyl-azanide] | 0
3 | C[n+]1cc(C(=O)[N-]S(C)(=O)=O)c2ccccc2n1 [Compound A5, (2-methylcinnolin-2-ium-4-carbonyl)-methylsulfonyl-azanide] | 90
4 | C[n+]1cc(C(=O)O)c2ccccc2n1 [Compound A29] | 30
5 | CCP(=O)([O-])c1c[n+](C)nc2ccccc12 [Compound A48, ethyl-(2-methylcinnolin-2-ium-4-yl)phosphinate] | 70
6 | C[n+]1cc(SCC(=O)O)c2ccccc2n1 [Compound A57, 2-(2-methylcinnolin-2-ium-4-yl)sulfanylacetic acid chloride] | 30
7 | C[n+]1cc(C(=O)O)c2ccccc2n1 [Compound A3, 2-methylcinnolin-2-ium-4-carboxylic acid methyl sulfate] | 50

system: Euphorbia heterophylla (EPHHL); test: Post-emergence efficacy, glasshouse; format: in vivo; conditions: Euphorbia heterophylla, post-emergence, 312 h; Application Rate 1000 g/Ha; evaluated after 13 days; 100=total damage to plant, 0=no damage to plant; read-out: Control of weed species after post-emergence application, EPHHL
Procedure, shortened: as §1

Row | SMILES | pest or weed control at 1000 g/ha [%]
8 | O=C(O)c1c[n+](CCO)nc2ccccc12 [Compound A30] | 100
9 | O=C(O)CC[n+]1cc(C(=O)[N-]S(=O)(=O)C2CC2)c2ccccc2n1 [Compound A20, [2-(2-carboxyethyl)cinnolin-2-ium-4-carbonyl]-cyclopropylsulfonyl-azanide] | 20
10 | C[n+]1cc(C(=O)[N-]S(C)(=O)=O)c2ccccc2n1 [Compound A5, (2-methylcinnolin-2-ium-4-carbonyl)-methylsulfonyl-azanide] | 90
11 | C[n+]1cc(C(=O)O)c2ccccc2n1 [Compound A29] | 80
12 | CCP(=O)([O-])c1c[n+](C)nc2ccccc12 [Compound A48, ethyl-(2-methylcinnolin-2-ium-4-yl)phosphinate] | 100
13 | C[n+]1cc(SCC(=O)O)c2ccccc2n1 [Compound A57, 2-(2-methylcinnolin-2-ium-4-yl)sulfanylacetic acid chloride] | 20
14 | C[n+]1cc(C(=O)O)c2ccccc2n1 [Compound A3, 2-methylcinnolin-2-ium-4-carboxylic acid methyl sulfate] | 30

system: Amaranthus palmeri (AMAPA); test: Post-emergence efficacy, glasshouse; format: in vivo; conditions: Amaranthus palmeri, post-emergence, 312 h; Application Rate 1000 g/Ha; evaluated after 13 days; 100=total damage to plant, 0=no damage to plant; read-out: Control of weed species after post-emergence application, AMAPA
Procedure, shortened: as §1

Row | SMILES | pest or weed control at 1000 g/ha [%]
15 | O=C(O)c1c[n+](CCO)nc2ccccc12 [Compound A30] | 100
16 | O=C(O)CC[n+]1cc(C(=O)[N-]S(=O)(=O)C2CC2)c2ccccc2n1 [Compound A20, [2-(2-carboxyethyl)cinnolin-2-ium-4-carbonyl]-cyclopropylsulfonyl-azanide] | 50
17 | C[n+]1cc(C(=O)[N-]S(C)(=O)=O)c2ccccc2n1 [Compound A5, (2-methylcinnolin-2-ium-4-carbonyl)-methylsulfonyl-azanide] | 100
18 | C[n+]1cc(C(=O)O)c2ccccc2n1 [Compound A29] | 90
19 | CCP(=O)([O-])c1c[n+](C)nc2ccccc12 [Compound A48, ethyl-(2-methylcinnolin-2-ium-4-yl)phosphinate] | 100
20 | C[n+]1cc(SCC(=O)O)c2ccccc2n1 [Compound A57, 2-(2-methylcinnolin-2-ium-4-yl)sulfanylacetic acid chloride] | 40
21 | C[n+]1cc(C(=O)O)c2ccccc2n1 [Compound A3, 2-methylcinnolin-2-ium-4-carboxylic acid methyl sulfate] | 20

system: Chenopodium album (CHEAL); test: Post-emergence efficacy, glasshouse; format: in vivo; conditions: Chenopodium album, post-emergence, 312 h; Application Rate 1000 g/Ha; evaluated after 13 days; 100=total damage to plant, 0=no damage to plant; read-out: Control of weed species after post-emergence application, CHEAL
Procedure, shortened: as §1

Row | SMILES | pest or weed control at 1000 g/ha [%]
22 | O=C(O)c1c[n+](CCO)nc2ccccc12 [Compound A30] | 100
23 | O=C(O)CC[n+]1cc(C(=O)[N-]S(=O)(=O)C2CC2)c2ccccc2n1 [Compound A20, [2-(2-carboxyethyl)cinnolin-2-ium-4-carbonyl]-cyclopropylsulfonyl-azanide] | 30
24 | C[n+]1cc(C(=O)[N-]S(C)(=O)=O)c2ccccc2n1 [Compound A5, (2-methylcinnolin-2-ium-4-carbonyl)-methylsulfonyl-azanide] | 90
25 | C[n+]1cc(C(=O)O)c2ccccc2n1 [Compound A29] | 90
26 | CCP(=O)([O-])c1c[n+](C)nc2ccccc12 [Compound A48, ethyl-(2-methylcinnolin-2-ium-4-yl)phosphinate] | 100
27 | C[n+]1cc(SCC(=O)O)c2ccccc2n1 [Compound A57, 2-(2-methylcinnolin-2-ium-4-yl)sulfanylacetic acid chloride] | 40
28 | C[n+]1cc(C(=O)O)c2ccccc2n1 [Compound A3, 2-methylcinnolin-2-ium-4-carboxylic acid methyl sulfate] | 20

system: Eleusine indica (ELEIN); test: Post-emergence efficacy, glasshouse; format: in vivo; conditions: Eleusine indica, post-emergence, 312 h; Application Rate 1000 g/Ha; evaluated after 13 days; 100=total damage to plant, 0=no damage to plant; read-out: Control of weed species after post-emergence application, ELEIN
Procedure, shortened: as §1

Row | SMILES | pest or weed control at 1000 g/ha [%]
29 | O=C(O)c1c[n+](CCO)nc2ccccc12 [Compound A30] | 80
30 | O=C(O)CC[n+]1cc(C(=O)[N-]S(=O)(=O)C2CC2)c2ccccc2n1 [Compound A20, [2-(2-carboxyethyl)cinnolin-2-ium-4-carbonyl]-cyclopropylsulfonyl-azanide] | 0
31 | C[n+]1cc(C(=O)[N-]S(C)(=O)=O)c2ccccc2n1 [Compound A5, (2-methylcinnolin-2-ium-4-carbonyl)-methylsulfonyl-azanide] | 90
32 | C[n+]1cc(C(=O)O)c2ccccc2n1 [Compound A29] | 20
33 | CCP(=O)([O-])c1c[n+](C)nc2ccccc12 [Compound A48, ethyl-(2-methylcinnolin-2-ium-4-yl)phosphinate] | 100
34 | C[n+]1cc(SCC(=O)O)c2ccccc2n1 [Compound A57, 2-(2-methylcinnolin-2-ium-4-yl)sulfanylacetic acid chloride] | 40
35 | C[n+]1cc(C(=O)O)c2ccccc2n1 [Compound A3, 2-methylcinnolin-2-ium-4-carboxylic acid methyl sulfate] | 60

system: Lolium perenne (LOLPE); test: Post-emergence efficacy, glasshouse; format: in vivo; conditions: Lolium perenne, post-emergence, 312 h; Application Rate 1000 g/Ha; evaluated after 13 days; 100=total damage to plant, 0=no damage to plant; read-out: Control of weed species after post-emergence application, LOLPE
Procedure, shortened: as §1

Row | SMILES | pest or weed control at 1000 g/ha [%]
36 | O=C(O)c1c[n+](CCO)nc2ccccc12 [Compound A30] | 40
37 | O=C(O)CC[n+]1cc(C(=O)[N-]S(=O)(=O)C2CC2)c2ccccc2n1 [Compound A20, [2-(2-carboxyethyl)cinnolin-2-ium-4-carbonyl]-cyclopropylsulfonyl-azanide] | 0
38 | C[n+]1cc(C(=O)[N-]S(C)(=O)=O)c2ccccc2n1 [Compound A5, (2-methylcinnolin-2-ium-4-carbonyl)-methylsulfonyl-azanide] | 50
39 | C[n+]1cc(C(=O)O)c2ccccc2n1 [Compound A29] | 40
40 | CCP(=O)([O-])c1c[n+](C)nc2ccccc12 [Compound A48, ethyl-(2-methylcinnolin-2-ium-4-yl)phosphinate] | 40
41 | C[n+]1cc(SCC(=O)O)c2ccccc2n1 [Compound A57, 2-(2-methylcinnolin-2-ium-4-yl)sulfanylacetic acid chloride] | 10
42 | C[n+]1cc(C(=O)O)c2ccccc2n1 [Compound A3, 2-methylcinnolin-2-ium-4-carboxylic acid methyl sulfate] | 20

system: Setaria faberi (SETFA); test: Post-emergence efficacy, glasshouse; format: in vivo; conditions: Setaria faberi, post-emergence, 312 h; Application Rate 1000 g/Ha; evaluated after 13 days; 100=total damage to plant, 0=no damage to plant; read-out: Control of weed species after post-emergence application, SETFA
Procedure, shortened: as §1

Row | SMILES | pest or weed control at 1000 g/ha [%]
43 | O=C(O)c1c[n+](CCO)nc2ccccc12 [Compound A30] | 70
44 | O=C(O)CC[n+]1cc(C(=O)[N-]S(=O)(=O)C2CC2)c2ccccc2n1 [Compound A20, [2-(2-carboxyethyl)cinnolin-2-ium-4-carbonyl]-cyclopropylsulfonyl-azanide] | 0
45 | C[n+]1cc(C(=O)[N-]S(C)(=O)=O)c2ccccc2n1 [Compound A5, (2-methylcinnolin-2-ium-4-carbonyl)-methylsulfonyl-azanide] | 70
46 | C[n+]1cc(C(=O)O)c2ccccc2n1 [Compound A29] | 50
47 | CCP(=O)([O-])c1c[n+](C)nc2ccccc12 [Compound A48, ethyl-(2-methylcinnolin-2-ium-4-yl)phosphinate] | 100
48 | C[n+]1cc(SCC(=O)O)c2ccccc2n1 [Compound A57, 2-(2-methylcinnolin-2-ium-4-yl)sulfanylacetic acid chloride] | 30
49 | C[n+]1cc(C(=O)O)c2ccccc2n1 [Compound A3, 2-methylcinnolin-2-ium-4-carboxylic acid methyl sulfate] | 10

system: Echinochloa crus-galli (ECHCG); test: Post-emergence efficacy, glasshouse; format: in vivo; conditions: Echinochloa crus-galli, post-emergence, 312 h; Application Rate 1000 g/Ha; evaluated after 13 days; 100=total damage to plant, 0=no damage to plant; read-out: Control of weed species after post-emergence application, ECHCG
Procedure, shortened: as §1

Row | SMILES | pest or weed control at 1000 g/ha [%]
50 | O=C(O)c1c[n+](CCO)nc2ccccc12 [Compound A30] | 50
51 | O=C(O)CC[n+]1cc(C(=O)[N-]S(=O)(=O)C2CC2)c2ccccc2n1 [Compound A20, [2-(2-carboxyethyl)cinnolin-2-ium-4-carbonyl]-cyclopropylsulfonyl-azanide] | 10
52 | C[n+]1cc(C(=O)[N-]S(C)(=O)=O)c2ccccc2n1 [Compound A5, (2-methylcinnolin-2-ium-4-carbonyl)-methylsulfonyl-azanide] | 50
53 | C[n+]1cc(C(=O)O)c2ccccc2n1 [Compound A29] | 40
54 | CCP(=O)([O-])c1c[n+](C)nc2ccccc12 [Compound A48, ethyl-(2-methylcinnolin-2-ium-4-yl)phosphinate] | 80
55 | C[n+]1cc(SCC(=O)O)c2ccccc2n1 [Compound A57, 2-(2-methylcinnolin-2-ium-4-yl)sulfanylacetic acid chloride] | 10
56 | C[n+]1cc(C(=O)O)c2ccccc2n1 [Compound A3, 2-methylcinnolin-2-ium-4-carboxylic acid methyl sulfate] | 30

system: Ipomoea hederacea (IPOHE); test: Post-emergence efficacy, glasshouse; format: in vivo; conditions: Ipomoea hederacea, post-emergence, 312 h; Application Rate 1000 g/Ha; evaluated after 13 days; 100=total damage to plant, 0=no damage to plant; read-out: Control of weed species after post-emergence application, IPOHE
Procedure, shortened: as §1

Row | SMILES | pest or weed control at 1000 g/ha [%]
57 | O=C(O)c1c[n+](CCO)nc2ccccc12 [Compound A30] | 100
58 | O=C(O)CC[n+]1cc(C(=O)[N-]S(=O)(=O)C2CC2)c2ccccc2n1 [Compound A20, [2-(2-carboxyethyl)cinnolin-2-ium-4-carbonyl]-cyclopropylsulfonyl-azanide] | 10
59 | C[n+]1cc(C(=O)[N-]S(C)(=O)=O)c2ccccc2n1 [Compound A5, (2-methylcinnolin-2-ium-4-carbonyl)-methylsulfonyl-azanide] | 90
60 | C[n+]1cc(C(=O)O)c2ccccc2n1 [Compound A29] | 80
61 | CCP(=O)([O-])c1c[n+](C)nc2ccccc12 [Compound A48, ethyl-(2-methylcinnolin-2-ium-4-yl)phosphinate] | 70
62 | C[n+]1cc(SCC(=O)O)c2ccccc2n1 [Compound A57, 2-(2-methylcinnolin-2-ium-4-yl)sulfanylacetic acid chloride] | 10
63 | C[n+]1cc(C(=O)O)c2ccccc2n1 [Compound A3, 2-methylcinnolin-2-ium-4-carboxylic acid methyl sulfate] | 20
